Values quoted from earlier work as cited in patent publication US7901689B2, “Chimeric peptides as immunogens, antibodies thereto, and methods for immunization using chimeric peptides or antibodies” (Intellect Neurosciences, Inc., priority 1999, dated 2011).
pEC50: −log10 of the molar value.

What was measured:
[1] = tested on: Alzheimer's disease-like pathology in PDAPP transgenic mice; details: Schenk et al. 1999
[2] = tested on: Aβ-induced toxicity in cultured neurons; details: Yankner et al., 1995
Aβ production = details: Knops et al., 1995, Haass et al., read-out: EC50 for inhibition of Aβ production

**Q.** For “amyloid-β: intact amyloid-β used as immunogen by Schenk et al. (1999)”, which “development of β-amyloid plaque formation, neuritic dystrophy and astragliosis” value ([1]; immunization of young animals prior to onset of neuropathologies) is on record?
**A.** essentially prevented

**Q.** What about the “extent and progression of Alzheimer's disease-type neuropathologies” value ([1]; treatment in older animals after onset of neuropathologies) of the same molecule?
**A.** reduce the extent and progression

**Q.** For `Nc1c(/N=N/c2ccc(-c3ccc(/N=N/c4cc(S(=O)(=O)O)c5ccccc5c4N)cc3)cc2)cc(S(=O)(=O)O)c2ccccc12` [Congo Red], which “Aβ-induced toxicity in cultured neurons” value [2] is on record?
**A.** completely inhibits

**Q.** With `CO/C1=C\C(C)=C\[C@@H](C)[C@@H](O)[C@@H](C)C/C(C)=C/C=C/[C@H](OC)[C@@H]([C@@H](C)[C@@H](O)[C@H](C)[C@@]2(O)C[C@@H](O)[C@H](C)[C@@H](C(C)C)O2)OC1=O` [Bafilomycin] as the molecule, how does the pEC50 (Aβ production) read?
**A.** ~7.30
